Holding throughout (type): biochemical
Experiment [1] addresses T1, JAK1 (aa 850-1154, catalytic domain, GST-tag) (Homo sapiens, UniProt P23458).
T1 construct: JAK1 (aa 850-1154) and TYK2 (aa 871-1187) are expressed with an N-terminally fused GST-tag; GST (N); purchased Carna Biosciences, Inc; host or cells: baculovirus expression system
In words: JAK kinase assay (HTRF, phosphorylation of TK substrate-biotin), JAK1. Conditions: ATP at Km (7 μM). The method, then: (§1) Human baculovirus-expressed JAK1, 2, 3 and TYK2 were purchased from Carna Biosciences, Inc. All four purified enzymes contain only the catalytic domain. JAK1 (aa 850-1154) and TYK2 (aa 871-1187) are expressed with an N-terminally fused GST-tag, and JAK2 and JAK3 with an N-terminally fused His-tag.
(§2) Inhibition of phosphorylation of a synthetic peptide was measured in an HTRF-based assay using the TK substrate-Biotin from the Cisbio HTRFKinEASE TK kit. First, 2 μl of TK solution (TK substrate-biotin in kinase buffer [1× enzymatic buffer from HTRFKinEASE TK kit, 1 mM DTT]) is added to a plate containing 1 μl prediluted compound (final assay concentration DMSO: 0.75%). Then, 5 μl kinase-ATP mix (prepared in kinase buffer) is added to the wells and the plates are incubated at RT for 20-30 min. For all four kinases a concentration of ATP that corresponded to the Km for ATP was used. The final concentrations of buffers, substrate, kinase and ATP were: JAK1: 50 mM Hepes buffer pH 7.0, 0.01% BSA, 10 mM MgCl2, 1 mM DTT, 7 μM ATP, 50 nM SEB, 1 μM TK Substrate-Biotin and 5 ng JAK1; JAK2: 50 mM Hepes buffer pH 7.0, 0.01% BSA, 5 mM MgCl2, 1 mM DTT, 4 μM ATP, 1 μM TK Substrate-Biotin and 0.1 ng JAK2; JAK3: 50 mM Hepes buffer pH 7.0, 0.01% BSA, 5 mM MgCl2, 1 mM DTT, 2 μM ATP, 1 μM TK Substrate-Biotin and 0.3 ng JAK3; TYK2: 50 mM Hepes buffer pH 7.0, 0.01% BSA, 5 mM MgCl2, 1 mM DTT, 13 μM ATP, 50 nM SEB, 1 μM TK Substrate-Biotin and 0.8 ng TYK2. Thereafter, the kinase reaction is stopped by adding 4 μl detection mix (final concentrations: 50 mM Hepes buffer pH 7.0, 0.01% BSA, 0.8 M KF, 20 mM EDTA, 42 nM Streptavidin-XL665 and 1:400 STK Ab Cryptate) and the plates are incubated overnight in the dark. The HTRF signal is read using an Envision plate reader.
(§3) In Table 1 selected JAK kinase inhibitory activities are listed with the following indicators: I: EC50<100 nM, II: 100 nM≦EC50≦500 nM and III: EC50>500 nM

Experiment [2] has as its target T2, JAK3 (catalytic domain, His-tag) (Homo sapiens, UniProt P52333).
T2 construct: All four purified enzymes contain only the catalytic domain; His (N); purchased Carna Biosciences, Inc; host or cells: baculovirus expression system
Kind of experiment: JAK kinase assay (HTRF, phosphorylation of TK substrate-biotin), JAK3. Conditions: ATP at Km (2 μM). The method, then: as §1, §2, §3

Experiment [3] addresses T3, TYK2 (aa 871-1187, catalytic domain, GST-tag) (Homo sapiens, UniProt P29597).
T3 construct: JAK1 (aa 850-1154) and TYK2 (aa 871-1187) are expressed with an N-terminally fused GST-tag; GST (N); purchased Carna Biosciences, Inc; host or cells: baculovirus expression system
T3 sequence (P29597 871-1187): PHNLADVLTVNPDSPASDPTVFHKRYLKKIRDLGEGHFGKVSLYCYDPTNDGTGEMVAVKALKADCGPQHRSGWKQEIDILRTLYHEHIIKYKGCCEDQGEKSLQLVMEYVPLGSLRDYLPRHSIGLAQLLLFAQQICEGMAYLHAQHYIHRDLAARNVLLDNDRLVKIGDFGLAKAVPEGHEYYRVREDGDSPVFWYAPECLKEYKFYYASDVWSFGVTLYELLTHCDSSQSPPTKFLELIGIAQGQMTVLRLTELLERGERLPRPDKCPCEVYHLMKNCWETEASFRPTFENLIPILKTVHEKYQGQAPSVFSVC
In words: JAK kinase assay (HTRF, phosphorylation of TK substrate-biotin), TYK2. Conditions: ATP at Km (13 μM). The method, then:
as §1, §2, §3
(In general: TR-FRET usually uses a lanthanide donor and a delayed reading to cut background.)

In experiment [4] the target is T4, JAK2 (catalytic domain, His-tag) (Homo sapiens, UniProt O60674).
T4 construct: All four purified enzymes contain only the catalytic domain; His (N); purchased Carna Biosciences, Inc; host or cells: baculovirus expression system
In words: JAK kinase assay (HTRF, phosphorylation of TK substrate-biotin), JAK2. Conditions: ATP at Km (4 μM). The method, then: as §1, §2, §3

The mark [5] stands for this setting: read-out: JAK1 kinase inhibitory activity (EC50 indicator).
Where [6] appears, read: read-out: JAK3 kinase inhibitory activity (EC50 indicator).
Where [7] appears, read: read-out: TYK2 kinase inhibitory activity (EC50 indicator).
Where [8] appears, read: read-out: JAK2 kinase inhibitory activity (EC50 indicator).
Where [9] appears, read: HTRF assay, read-out: JAK1 kinase inhibitory activity (EC50 indicator).
Where [10] appears, read: HTRF assay, read-out: JAK3 kinase inhibitory activity (EC50 indicator).
Where [11] appears, read: HTRF assay, read-out: TYK2 kinase inhibitory activity (EC50 indicator).
[12] abbreviates: HTRF assay, read-out: JAK2 kinase inhibitory activity (EC50 indicator).

Among the data in US9346809B2 (LEO PHARMA A/S, priority 2009, dated 2016) are EC50 values, retold here.

Read-outs that look alike come from different tables or passages of the source. Bounds are passed on as bounds.

T1 sequence (P23458 850-1154): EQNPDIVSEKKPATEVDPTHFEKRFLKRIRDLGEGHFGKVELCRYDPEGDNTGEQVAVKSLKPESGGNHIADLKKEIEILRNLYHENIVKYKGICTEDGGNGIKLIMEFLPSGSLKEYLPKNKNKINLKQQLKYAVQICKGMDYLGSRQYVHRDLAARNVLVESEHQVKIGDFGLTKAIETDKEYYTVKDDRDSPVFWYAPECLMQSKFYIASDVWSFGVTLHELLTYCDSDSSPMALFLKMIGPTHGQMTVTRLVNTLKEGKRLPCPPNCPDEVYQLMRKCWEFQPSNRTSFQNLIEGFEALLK
T2 sequence (P52333 822-1111 limits assumed): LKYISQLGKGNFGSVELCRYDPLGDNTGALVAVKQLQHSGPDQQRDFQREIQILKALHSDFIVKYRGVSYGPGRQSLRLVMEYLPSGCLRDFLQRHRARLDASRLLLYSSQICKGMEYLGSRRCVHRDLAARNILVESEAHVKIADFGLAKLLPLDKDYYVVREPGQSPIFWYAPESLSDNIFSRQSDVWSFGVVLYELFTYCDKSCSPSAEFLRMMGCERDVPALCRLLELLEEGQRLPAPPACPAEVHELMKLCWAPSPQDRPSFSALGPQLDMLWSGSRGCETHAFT
T4 sequence (O60674 849-1124 limits assumed): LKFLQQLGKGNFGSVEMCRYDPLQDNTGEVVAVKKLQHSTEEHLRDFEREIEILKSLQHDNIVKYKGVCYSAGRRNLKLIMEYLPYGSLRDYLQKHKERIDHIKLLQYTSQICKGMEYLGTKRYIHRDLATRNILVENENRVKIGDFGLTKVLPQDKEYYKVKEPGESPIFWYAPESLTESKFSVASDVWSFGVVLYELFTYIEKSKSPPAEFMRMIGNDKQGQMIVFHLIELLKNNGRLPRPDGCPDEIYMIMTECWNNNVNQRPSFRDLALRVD

A word on the EC50: it is the concentration giving half of the maximal effect. As to `O=C(c1cnc2ccccc2c1)N1CCN(c2ncnc3[nH]ccc23)CC12CC2` [Example 163, [7-(7H-Pyrrolo[2,3-d]pyrimidin-4-yl)-4,7-diaza-spiro[2.5]oct-4-yl]-quinolin-3-yl-methanone], the EC50 in experiment [1] (setting [5]) is < 100 nM; in experiment [2] (setting [6]), > 500 nM; in experiment [3] (setting [7]), 100 to 500 nM; in experiment [4] (setting [8]), < 100 nM.
For `NS(=O)(=O)c1ccc(NCCC(=O)N2CCN(c3ncnc4[nH]ccc34)CC23CC3)cc1` [Example 453, 4-{3-Oxo-3-[7-(7H-pyrrolo[2,3-d]pyrimidin-4-yl)-4,7-diaza-spiro[2.5]oct-4-yl]-propylamino}-benzenesulfonamide], the EC50 in experiment [1] (HTRF assay, read-out: JAK1 kinase inhibitory activity (EC50)) is < 100 nM; in experiment [2] (HTRF assay, read-out: JAK3 kinase inhibitory activity (EC50)), 100 to 500 nM; in experiment [3] (HTRF assay, read-out: TYK2 kinase inhibitory activity (EC50)) it was > 500 nM; in experiment [4] (HTRF assay, read-out: JAK2 kinase inhibitory activity (EC50)) it was < 100 nM.
In the case of `O=C(c1cc2ccccc2s1)N1CCN(c2ncnc3[nH]ccc23)CC12CCCC2` [Example 75, Benzo[b]thiophen-2-yl-[9-(7H-pyrrolo[2,3-d]pyrimidin-4-yl)-6,9-diaza-spiro[4.5]dec-6-yl]-methanone], the EC50 in experiment [1] (setting [5]), in experiment [2] (setting [6]), in experiment [3] (setting [7]) and in experiment [4] (setting [8]) was > 500 nM in each case.
Regarding `NS(=O)(=O)CCC(=O)N1CCN(c2ncnc3[nH]ccc23)CC12CC2` [Example 17, 3-Oxo-3-[7-(7H-pyrrolo[2,3-d]pyrimidin-4-yl)-4,7-diazaspiro[2.5]oct-4-yl]propane-1-sulfonic acid amide], the EC50 in experiment [1] (setting [5]) was < 100 nM; in experiment [2] (setting [6]), < 100 nM; in experiment [3] (setting [7]) it was 100 to 500 nM; in experiment [4] (setting [8]), < 100 nM.
Consider `N#Cc1ccc(C(=O)N2CCN(c3ncnc4[nH]ccc34)CC23CC3)s1` [Example 193, 5-[7-(7H-Pyrrolo[2,3-d]pyrimidin-4-yl)-4,7-diaza-spiro[2.5]octane-4-carbonyl]-thiophene-2-carbonitrile], for which the EC50 in experiment [1] (setting [5]), in experiment [2] (setting [6]), in experiment [3] (setting [7]) and in experiment [4] (setting [8]) was < 100 nM each time.
With `CC1CN(C(=O)CCC#N)C2(CC2)CN1c1ncnc2[nH]ccc12` (stereo not shown) [Example 150, 4-[6-Methyl-7-(7H-pyrrolo[2,3-d]pyrimidin-4-yl)-4,7-diaza-spiro[2.5]oct-4-yl]-4-oxo-butyronitrile], the EC50 is < 100 nM in experiment [1] (setting [5]), < 100 nM in experiment [2] (setting [6]), > 500 nM in experiment [3] (setting [7]) and < 100 nM in experiment [4] (setting [8]).
Turning to `Cc1c[nH]c2ncnc(N3CCN(C(=O)C4(C#N)CC4)C4(CC4)C3)c12` [Example 329, 1-[7-(5-Methyl-7H-pyrrolo[2,3-d]pyrimidin-4-yl)-4,7-diaza-spiro[2.5]octane-4-carbonyl]-cyclopropanecarbonitrile], the EC50 in experiment [1] (setting [9]), in experiment [2] (setting [10]), in experiment [3] (setting [11]) and in experiment [4] (setting [12]) was > 500 nM each time.
Take `Cc1cnc(C(=O)N2[C@@H]3CC[C@H]2CN(c2ncnc4[nH]ccc24)C3)cn1` [Example 74, (5-Methyl-pyrazin-2-yl)-[3-(7H-pyrrolo[2,3-d]pyrimidin-4-yl)-3,8-diaza-bicyclo[3.2.1]oct-8-yl]-methanone]: the EC50 in experiment [1] (setting [5]) was 100 to 500 nM; in experiment [2] (setting [6]) it was > 500 nM; in experiment [3] (setting [7]), > 500 nM; in experiment [4] (setting [8]), 100 to 500 nM.
As for `Cc1cnc(C(=O)N2CCN(c3ncnc4[nH]ccc34)CC23CC3)cn1` [Example 414, (5-Methyl-pyrazin-2-yl)-[7-(7H-pyrrolo[2,3-d]pyrimidin-4-yl)-4,7-diaza-spiro[2.5]oct-4-yl]-methanone], the EC50 in experiment [1] (setting [9]) is < 100 nM; in experiment [2] (setting [10]) it was < 100 nM; in experiment [3] (setting [11]) it was 100 to 500 nM; in experiment [4] (setting [12]) it was < 100 nM.
For the compound `NS(=O)(=O)c1ccc(OCC(=O)N2CCN(c3ncnc4[nH]ccc34)CC23CC3)cc1` [Example 399, 4-{2-Oxo-2-[7-(7H-pyrrolo[2,3-d]pyrimidin-4-yl)-4,7-diaza-spiro[2.5]oct-4-yl]-ethoxy}-benzenesulfonamide], the EC50 in experiment [1] (setting [9]), in experiment [2] (setting [10]), in experiment [3] (setting [11]) and in experiment [4] (setting [12]) was < 100 nM throughout.
Turning to `CS(=O)(=O)c1ccc(C(=O)N2CCN(c3ncnc4[nH]ccc34)CC23CC3)cc1` [Example 364, (4-Methanesulfonyl-phenyl)-[7-(7H-pyrrolo[2,3-d]pyrimidin-4-yl)-4,7-diaza-spiro[2.5]oct-4-yl]-methanone], the EC50 in experiment [1] (setting [9]) was < 100 nM; in experiment [2] (setting [10]) it was 100 to 500 nM; in experiment [3] (setting [11]), 100 to 500 nM; in experiment [4] (setting [12]), < 100 nM.
As to `O=C(c1cc2cc(F)cc(F)c2[nH]1)N1CCN(c2ncnc3[nH]ccc23)CC12CC2` [Example 192, (5,7-Difluoro-1H-indol-2-yl)-[7-(7H-pyrrolo[2,3-d]pyrimidin-4-yl)-4,7-diaza-spiro[2.5]oct-4-yl]-methanone], the EC50 in experiment [1] (setting [5]), in experiment [2] (setting [6]), in experiment [3] (setting [7]) and in experiment [4] (setting [8]) was < 100 nM in each case.
Regarding `N#CCC(=O)N1CCN(c2ncnc3[nH]ccc23)CC12CC2` [Example 54, 3-Oxo-3-[7-(7H-pyrrolo[2,3-d]pyrimidin-4-yl)-4,7-diazaspiro[2.5]oct-4-yl]propionitrile], the EC50 in experiment [1] (setting [5]) is < 100 nM; in experiment [2] (setting [6]), < 100 nM; in experiment [3] (setting [7]), > 500 nM; in experiment [4] (setting [8]), < 100 nM.
As for `O=C(Cc1cccnc1)N1CCN(c2ncnc3[nH]ccc23)CC12CC2` [Example 4, 2-Pyridin-3-yl-1-[7-(7H-pyrrolo[2,3-d]pyrimidin-4-yl)-4,7-diazaspiro[2.5]oct-4-yl]ethanone], the EC50 is 100 to 500 nM in experiment [1] (setting [5]), 100 to 500 nM in experiment [2] (setting [6]), > 500 nM in experiment [3] (setting [7]) and < 100 nM in experiment [4] (setting [8]).
For the compound `O=C(c1cc(O)cs1)N1CCN(c2ncnc3[nH]ccc23)CC12CC2` [Example 385, (4-Hydroxy-thiophen-2-yl)-[7-(7H-pyrrolo[2,3-d]pyrimidin-4-yl)-4,7-diaza-spiro[2.5]oct-4-yl]-methanone], the EC50 in experiment [1] (setting [9]), in experiment [2] (setting [10]), in experiment [3] (setting [11]) and in experiment [4] (setting [12]) was < 100 nM each time.
As for `N#Cc1ccccc1C(=O)N1[C@@H]2CC[C@@H]1CN(c1ncnc3[nH]ccc13)C2` [Example 249, 2-[3-(7H-Pyrrolo[2,3-d]pyrimidin-4-yl)-3,8-diaza-bicyclo[3.2.1]octane-8-carbonyl]-benzonitrile], the EC50 in experiment [1] (setting [9]) is 100 to 500 nM; in experiment [2] (setting [10]), 100 to 500 nM; in experiment [3] (setting [11]), > 500 nM; in experiment [4] (setting [12]), < 100 nM.
